Results taken from patent publication US20210181109A1 (FUJIFILM Corporation, priority 2018, published 2021).
Where two headings read alike, the source gives them in different places.

Columns and labels:
[1] = Average score of NAC and NAL depletion and prediction of skin allergenicity, UV method; conditions: single substance, Reference (UV method); for Prediction result: criterion average score […]; for Average score: test substance solution 1 mmol/L
Procedure, shortened: (§1)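 Score is the mean of NAC and NAL depletion percentages, rounded at the second decimal place. Test substances classed as allergenic (S) or non-allergenic (NS) from depletion of NAC, NAL, or their average score.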

[2] = cited from earlier work
[3] = NAL depletion percent, HPLC-fluorescence detection; conditions: single substance, test substance solution 1 mmol/L, fluorescence method
Procedure, shortened: (§2)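 NAL (5 μmol/L, pH 10.2 phosphate buffer) reacted with test substance (1 mmol/L stock in water, acetonitrile, acetone or 5% DMSO/acetonitrile) for 24 h at 25 °C in the dark; stopped with TFA to 0.5%. Unreacted NAL quantified by HPLC (UV or fluorescence), n=3; depletion % relative to substance-free blank.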

[4] = NAC depletion percent, HPLC-fluorescence detection; conditions: single substance, test substance solution 1 mmol/L, fluorescence method
Procedure, shortened: (§3)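 NAC at 5 μmol/L in pH 8.0 phosphate buffer reacted with test substance (1 mmol/L stock in water, acetonitrile, acetone or 5% DMSO/acetonitrile) 24 h at 25 °C in the dark, n=3. Stopped with TFA (0.5% final); unreacted NAC quantified by HPLC, depletion percent calculated against blank without test substance.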

[5] = Average score of NAC and NAL depletion and prediction of skin allergenicity, fluorescence method; conditions: for Average score: test substance solution 1 mmol/L
Procedure, shortened: as §1

[6] = NAC depletion percent, HPLC-UV detection (281 nm); conditions: single substance, test substance solution 1 mmol/L, Reference (UV method)
Procedure, shortened: as §3

[7] = NAL depletion percent, HPLC-UV detection (281 nm); conditions: single substance, test substance solution 1 mmol/L, Reference (UV method)
Procedure, shortened: as §2

[8] = known values, LLNA-test-based classification, − for non-allergenic substances
[9] = single substance, fluorescence method, criterion average score […]
[10] = single substance, fluorescence method

Row | Compound | Prediction result [1] | Average score [1] | EC3 (%) [2, 8] | NAL depletion (%) [3] | NAC depletion (%) [4] | Prediction result [5, 9] | Average score [5, 10] | NAC depletion (%) [6] | NAL depletion (%) [7] | EC3 (%) ([2]; in vivo) | Prediction result [5]
1 | CCCOC(=O)c1cc(O)c(O)c(O)c1 [Propyl gallate] | S (S represents as being an allergenic substance) | 76.7% | 0.32% | 65.3% | 100.0% | S (S represents as being an allergenic substance) | 82.6% | 97.1% | 56.4% |  | 
2 | O=c1c(O)c(O)c1=O [Squaric acid] |  | 0.6% |  | 0.1% | 1.0% |  | 0.5% | 0.8% | 0.5% | 4.3% | 
3 | O=C(O)c1ccc2c(c1)C(=O)OC2=O [Trimellitic anhydride] | S (S represents as being an allergenic substance) | 49.4% | 0.6% | 94.2% | 0.8% | S (S represents as being an allergenic substance) | 47.5% | 1.9% | 97.0% |  | 
4 | O=C1C=CC(=O)C=C1 [p-Benzoquinone] | S (S represents as being an allergenic substance) | 90.0% | 0.0099% | 71.8% | 100.0% |  | 85.9% | 96.5% | 83.5% |  | S (key: S represents as being an allergenic substance; NS represents as being a non-allergenic substance)
5 | CCC/C=C/C=O [trans-2-Hexanal] | S (S represents as being an allergenic substance) | 46.3% | 5.5% | 11.4% | 97.9% | S (S represents as being an allergenic substance) | 54.6% | 80.4% | 12.3% |  | 
6 | CCCCCC(C=O)=Cc1ccccc1 [α-Amylcinnamaldehyde] | NS (NS represents as being a non-allergenic substance) | 0.8% | 11% | 0.4% | 0.3% | NS (NS represents as being a non-allergenic substance) | 0.3% | 0.0% | 1.6% |  | 
7 | CCCCCCC(C=O)=Cc1ccccc1 [α-Hexylcinnamaldehyde] | NS (NS represents as being a non-allergenic substance) | 0.6% | 11% | 0.0% | 0.0% | NS (NS represents as being a non-allergenic substance) | 0.0% | 0.0% | 1.1% |  | 
8 | Fluorescein isothiocyanate | S (S represents as being an allergenic substance) | 85.8% |  | 97.6% | 81.3% | S (S represents as being an allergenic substance) | 89.4% | 73.6% | 98.1% | 0.14% | 
9 | Kathon CG |  | 49.8% |  | 2.0% | 100.0% |  | 51.0% | 100.0% | −0.4% | 0.008% | 
10 | Vinylpyridine | S (S represents as being an allergenic substance) | 12.9% | 1.6% | 3.6% | 19.8% | S (S represents as being an allergenic substance) | 11.7% | 18.1% | 7.7% |  | 
